Test results: patent US20090317436A1, “COMPUTER DEVICES AND ACCESSORIES” (priority 2006, published 2009)

Legend:
Assay type in all cases: cell-based
[1] = tested on: Staphylococcus aureus NCTC 6571; experiment: Lethal photosensitization of S. aureus by photosensitizer-gold nanoparticle mixtures (Examples 2-8, Table 2), viable counting; settings: for effect of diluting the gold nanoparticles on killing of S. aureus: 2 nm gold nanoparticles; for enhancement of lethal photosensitization compared with TB in the absence of nanogold: 15 nm nanogold
Protocol: Gold nanoparticles of approximately 15 nm in diameter (batches NN1 and NN2 above) were mixed with an equal volume of aqueous toluidine blue O (TB) and left at room temperature for 15 minutes. TB was used at a final concentration of 1, 5, 10, 20 or 50 μM.
100 μl of the TB-gold mixture was added to 100 μl of a suspension of Staphylococcus aureus NCTC 6571 in phosphate buffered saline (PBS) (adjusted to an optical density of 0.05), and samples were irradiated with a fluorescent white light (28 W) for 10 minutes. S. aureus+TB only, and S. aureus+PBS, without photosensitizer or nanogold were used as controls. The final concentration of nanogold used was 1×10^15 particles/ml.
After irradiation, the numbers of surviving bacteria were enumerated by viable counting.
The method of Example 2 was repeated using gold nanoparticles of 2 nm diameter (British Biocell International). The final concentration of nanogold used was 4×10^13 particles/ml. TB was used at a final concentration of 10, 20 or 50 μM.
Experiments were performed as for Example 3, with the following modifications: Prior to mixing with the photosensitizer, the gold nanoparticles were either left undiluted, or diluted 1 in 10 or 1 in 100 in sterile, distilled water. The nanoparticles were then added to TB (final concentration 20 μM).
The samples were then illuminated for 30 seconds using a fibre optic white light source (Schott KL200). The surviving bacteria were enumerated by viable counting as before.
Example 4 was repeated using methylene blue (MB; 20 μM) as the photosensitizer.
Example 5 was repeated using 2 nm gold nanoparticles (British Biocell International).
Example 6 was repeated using tin chlorin e6 (SnCe6; 20 μg/ml) as the photosensitizer. The illumination time was 10 minutes. […]

[2] = tested on: Staphylococcus aureus NCTC 6571; experiment: Lethal photosensitization of S. aureus by toluidine blue/gold nanoparticle mixture (Example 1), viable counting
Protocol: Gold nanoparticles (2.0 nm diameter; British Biocell International) in water (15×10^13 particles per ml) were mixed with an equal volume of an aqueous solution of toluidine blue O (40 μM) and left at room temperature for 15 minutes. 100 μl of the gold-TB solution was added to 100 μl of a suspension of Staphylococcus aureus NCTC 6571 in phosphate buffered saline (PBS) and this was irradiated with white light from an 18 W fluorescent white lamp for 10 minutes. Controls consisted of: • (i) TB (final concentration=10 μM) and bacteria, irradiated for the same period of time, • (ii) nanogold (diluted 1:1 with water) and bacteria, irradiated for the same period of time, • (iii) bacteria without TB or nanogold, not irradiated (“control”).
After irradiation, the number of surviving bacteria was determined by viable counting.

[3] = tested on: Staphylococcus aureus NCTC 6571; experiment: Lethal photosensitization of S. aureus using a different TBO-tiopronin-gold nanoparticle conjugate (Examples 6-7, Table 4); settings: white light 30 mins; free TBO control
[4] = tested on: Staphylococcus aureus NCTC 6571; experiment: Lethal photosensitization of S. aureus by photosensitizer-gold nanoparticle mixtures (Examples 2-8, Table 2), viable counting; settings: Example 2
[5] = tested on: Staphylococcus aureus NCTC 6571; experiment: Lethal photosensitization of S. aureus using TBO-tiopronin-gold nanoparticle conjugate (Examples 2-5, Table 3); settings: Example 4, any length of time

CN(C)c1ccc2nc3ccc(=[N+](C)C)cc-3sc2c1 [Methylene blue, methylene blue]
effectiveness of combination against Staphylococcus aureus ([1]; 20 mM with 2 nm gold nanoparticles at 4×10^11 to 4×10^13 particles/ml): particularly effective | effectiveness of combination against Staphylococcus aureus ([1]; 20 mM with 15 nm gold nanoparticles at 1×10^13 to 1×10^15 particles/ml): particularly effective | Result (% kill class) ([1]; Example 5, photosensitiser 20 mM, gold nanoparticles 15 nm, 1 × 10^13 particles/ml, fibre optic white light 30 seconds): **** (99-100% kill) | Result (% kill class) ([1]; Example 5, photosensitiser 20 mM, gold nanoparticles 15 nm, 1 × 10^14 particles/ml, fibre optic white light 30 seconds): **** (99-100% kill) | Result (% kill class) ([1]; Example 5, photosensitiser 20 mM, gold nanoparticles 15 nm, 1 × 10^15 particles/ml, fibre optic white light 30 seconds): **** (99-100% kill) | effect of diluting the gold nanoparticles on killing of S. aureus ([1]; Example 6, MB 20 μM): enhanced the killing of S. aureus slightly | Result (% kill class) ([1]; Example 6, photosensitiser 20 mM, gold nanoparticles 2 nm, 4 × 10^11 particles/ml, fibre optic white light 30 seconds): **** (99-100% kill) | Result (% kill class) ([1]; Example 6, photosensitiser 20 mM, gold nanoparticles 2 nm, 4 × 10^12 particles/ml, fibre optic white light 30 seconds): **** (99-100% kill) | Result (% kill class) ([1]; Example 6, photosensitiser 20 mM, gold nanoparticles 2 nm, 4 × 10^13 particles/ml, fibre optic white light 30 seconds): **** (99-100% kill)

C=CC1=C(C)C2=CC3=NC(=C(CC(=O)[O-])C4=NC(=C(C)C4=C([O-])[O-])C=c4[n-]c(c(C)c4CC)=CC1=N2)C(CCC(=O)[O-])C3C.[H+].[Sn+4] (stereo not shown) [Tin chlorine6, tin chlorin e6]
effectiveness of combination against Staphylococcus aureus ([1]; 20 mg/ml with 2 nm gold nanoparticles at 4×10^11 particles/ml): particularly effective | effect of diluting the gold nanoparticles on killing of S. aureus ([1]; Example 7, SnCe6 20 μg/ml, illumination 10 minutes): enhanced the killing of S. aureus | Result (% kill class) ([1]; Example 7, photosensitiser 20 m/ml, gold nanoparticles 2 nm, 4 × 10^11 particles/ml, illumination 10 minutes): *** (95-99% kill) | Result (% kill class) ([1]; Example 7, photosensitiser 20 m/ml, gold nanoparticles 2 nm, 4 × 10^12 particles/ml, illumination 10 minutes): ** (90-95% kill) | Result (% kill class) ([1]; Example 7, photosensitiser 20 m/ml, gold nanoparticles 2 nm, 4 × 10^13 particles/ml, illumination 10 minutes): — (less than 50% kill)

Cc1cc2nc3ccc(N(C)C)cc3[s+]c2cc1N.[Cl-] [Toluidine blue, toluidine blue O]
% Kill ([2]; 18 W fluorescent white lamp 10 minutes, TB final 10 μM, 2.0 nm gold nanoparticles): 93.7% | kill of the bacterial suspensions ([2]; preliminary experiments, 30 minutes light exposure): total kills | S. aureus (cfu/ml) ([2]; surviving bacteria after 18 W fluorescent white lamp 10 minutes, TB final 10 μM, 2.0 nm gold nanoparticles): 8570000 cfu/ml | kills of the organism (in words) [3]: significant kills of the organism only at a concentration of 2.0 μm | Result (% kill class) ([4]; photosensitiser 100 mM, gold nanoparticles 15 nm, 1 × 10^15 particles/ml, fluorescent white light (28 W) 10 minutes): ** (90-95% kill) | enhancement of lethal photosensitization ([4]; with nanogold, TB 10 or 100 μM): little enhancement | effectiveness of combination against Staphylococcus aureus ([1]; 20 mM with 2 nm gold nanoparticles at 4×10^13 particles/ml): particularly effective | enhancement of lethal photosensitization ([1]; 2 nm nanogold particles, 10 μM or 50 μM TB): not when either 10 μM or 50 μM TB was used | enhancement of lethal photosensitization ([1]; 2 nm nanogold particles, 20 μM TB): enhancement of lethal photosensitization was evident | enhancement of lethal photosensitization compared with TB in the absence of nanogold ([1]; TB 1 μM): little enhancement | enhancement of lethal photosensitization compared with TB in the absence of nanogold ([1]; TB 5, 10 and 20 μM): enhancement was evident | enhancement of lethal photosensitization compared with TB in the absence of nanogold ([1]; TB 10 and 20 μM): Enhancement was greatest | effectiveness of combination against Staphylococcus aureus ([1]; 20 to 50 mM with 15 nm gold nanoparticles at 1×10^14 to 1×10^15 particles/ml): particularly effective | Result (% kill class) ([1]; Example 2, photosensitiser 1 mM, gold nanoparticles 15 nm, 1 × 10^15 particles/ml, fluorescent white light (28 W) 10 minutes): — (less than 50% kill) | Result (% kill class) ([1]; Example 2, photosensitiser 5 mM, gold nanoparticles 15 nm, 1 × 10^15 particles/ml, fluorescent white light (28 W) 10 minutes): * (50-90% kill) | Result (% kill class) ([1]; Example 2, photosensitiser 20 mM, gold nanoparticles 15 nm, 1 × 10^15 particles/ml, fluorescent white light (28 W) 10 minutes): **** (99-100% kill) | Result (% kill class) ([1]; Example 2, photosensitiser 50 mM, gold nanoparticles 15 nm, 1 × 10^15 particles/ml, fluorescent white light (28 W) 10 minutes): **** (99-100% kill) | enhancement of lethal photosensitization ([1]; Example 2, with nanogold, TB 20 and 50 μM): enhancement was greatest | Result (% kill class) ([1]; Example 3, photosensitiser 10 mM, gold nanoparticles 2 nm, 4 × 10^13 particles/ml, fluorescent white light (28 W) 10 minutes): * (50-90% kill) | Result (% kill class) ([1]; Example 3, photosensitiser 20 mM, gold nanoparticles 2 nm, 4 × 10^13 particles/ml, fluorescent white light (28 W) 10 minutes): **** (99-100% kill) | Result (% kill class) ([1]; Example 3, photosensitiser 50 mM, gold nanoparticles 2 nm, 4 × 10^13 particles/ml, fluorescent white light (28 W) 10 minutes): * (50-90% kill) | enhancement compared with undiluted nanogold ([1]; Example 4, TB 20 μM, nanoparticles diluted 1 in 10, white light 30 seconds): greater enhancement | Result (% kill class) ([1]; Example 4, photosensitiser 20 mM, gold nanoparticles 15 nm, 1 × 10^14 particles/ml, fibre optic white light 30 seconds): **** (99-100% kill) | Result (% kill class) ([1]; Example 4, photosensitiser 20 mM, gold nanoparticles 15 nm, 1 × 10^15 particles/ml, fibre optic white light 30 seconds): *** (95-99% kill) | effect when irradiated with white light [5]: no effect

nile blue sulphate
effectiveness of combination against Staphylococcus aureus ([1]; 20 to 50 mM with 2 nm gold nanoparticles at 4×10^13 particles/ml): particularly effective | Result (% kill class) ([1]; Example 8, photosensitiser 10 mM, gold nanoparticles 2 nm, 4 × 10^13 particles/ml, illuminated 30 minutes): *** (95-99% kill) | Result (% kill class) ([1]; Example 8, photosensitiser 20 mM, gold nanoparticles 2 nm, 4 × 10^13 particles/ml, illuminated 30 minutes): **** (99-100% kill) | Result (% kill class) ([1]; Example 8, photosensitiser 50 mM, gold nanoparticles 2 nm, 4 × 10^13 particles/ml, illuminated 30 minutes): **** (99-100% kill)
